Measurements taken from US10131679B2, “Substituted dihydropyrrolopyrazole compound” (UBE INDUSTRIES, LTD., priority 2014, dated 2018).
pKi: −log10 of the molar value.

Assays:
PAK4 = molecular target: T1, PAK4 (Homo sapiens, UniProt O96013); experiment: PAK4 enzyme inhibition test; format: biochemical; settings: Ki=IC50/(1+S/Km); 33P bound to MBP, [γ-33P]ATP, 30° C. for 20 minutes; read-out: Ki value of PAK4 inhibitory activity
T1 construct: purchased Invitrogen Corp. PV4212
Experimental: PAK4 Enzyme Inhibition Test
The preparation of a buffer solution was performed by mixing a trishydroxyaminomethane buffer solution (Tris buffer solution) (pH 7.5), DTT, Triton X-100, MgCl2, ethylene glycol bis(β-aminoethyl ether)-N,N,N′,N′-tetraacetic acid (EGTA), (3-glycerol phosphate, and sodium orthovanadate(V). A 40 μM [γ-^33P]ATP solution was used by diluting a 10 mM ATP solution and a commercially available [γ-^33P]ATP solution (manufactured by PerkinElmer, Inc., Code No. NEG-302H) with the buffer solution. A PAK4 solution was used by diluting commercially available PAK4 (manufactured by Invitrogen Corp., Catalog No. PV4212) with the buffer solution. A substrate solution was used by diluting MBP with the buffer solution. As for the preparation of a reaction solution, the buffer solution, the 40 μM [γ-^33P]ATP solution, the PAK4 solution, and the substrate solution were mixed at 4° C. to obtain a reaction solution.
PAK4 enzyme reaction was performed by adding 5 μL of a test compound solution prepared with 10% DMSO/90% injectable distilled water, and 45 μL of the reaction solution in a 1.5 mL microtube at 4° C. and reacting in the microtube at 30° C. for 20 minutes in a water bath incubator. After the reaction, a 10% aqueous TCA solution was added to each microtube while cooled to 4° C., and mixed to terminate the reaction. The resultant was left standing at 4° C. for 10 minutes and then centrifuged in a centrifuge, and the supernatant was discarded. Next, a 2% aqueous TCA solution was added, mixed, and then centrifuged in a centrifuge, and the supernatant was discarded. This washing operation was performed twice. After the washing, precipitates were dissolved in a 1 N aqueous NaOH solution, and the radioactivity was measured with a liquid scintillation counter.
The calculation of the inhibitory activity of the test compound against PAK4 was performed as a test compound concentration inhibiting 50% of the amount of ^33P bound to MBP (IC50 value) by using EXSUS (version 8.0.0 or version 8.0.1, manufactured by CAC Exicare Corp.).
The calculation of a Ki value was performed according to the following calculation expression. S means the concentration of ATP contained in the reaction solution, and Km means a Michaelis-Menten constant. Ki=IC50/(1+S/Km)

[1] = system: mouse imiquimod-induced psoriasis model; experiment: Ear thickening suppression test using mouse imiquimod-induced psoriasis model; format: in vivo; settings: topical, 120 h, application of a 0.01% methanol solution for 4 days, thickness measured on day 5, BALB/c mice, read-out: rate of inhibition of increase in right auricle thickness
Experimental: Ear Thickening Suppression Test Using Mouse Imiquimod-Induced Psoriasis Model
An imiquimod-induced psoriasis model test was carried out by modifying the method of Leslie van der Fits et al. (J. Immunol. 182, 5836 (2009)). BALB/c mice were used (female, supplied by Charles River Laboratories Japan, Inc.) as laboratory animals. On the start day of the test, the thicknesses of the right auricles of the mice were measured with a thickness gauge (model SMD-565J manufactured by TECLOCK Corp.). A test compound solution or only a solvent was applied or orally administered, and after 60 minutes, 5 mg of imiquimod (Beselna Cream 5% manufactured by Mochida Pharmaceutical Co., Ltd.) was applied to the insides of the right auricles. The test compound solution or solvent administration and the imiquimod application were carried out for 4 days, and the thicknesses of the right auricles were measured again on day 5. When increase in the thicknesses of the right auricles of the solvent-administered group on day 5 was defined as 100%, the rate of inhibition of increase (%) at each dose of the test compound was calculated.

T1 sequence (O96013 whole entry): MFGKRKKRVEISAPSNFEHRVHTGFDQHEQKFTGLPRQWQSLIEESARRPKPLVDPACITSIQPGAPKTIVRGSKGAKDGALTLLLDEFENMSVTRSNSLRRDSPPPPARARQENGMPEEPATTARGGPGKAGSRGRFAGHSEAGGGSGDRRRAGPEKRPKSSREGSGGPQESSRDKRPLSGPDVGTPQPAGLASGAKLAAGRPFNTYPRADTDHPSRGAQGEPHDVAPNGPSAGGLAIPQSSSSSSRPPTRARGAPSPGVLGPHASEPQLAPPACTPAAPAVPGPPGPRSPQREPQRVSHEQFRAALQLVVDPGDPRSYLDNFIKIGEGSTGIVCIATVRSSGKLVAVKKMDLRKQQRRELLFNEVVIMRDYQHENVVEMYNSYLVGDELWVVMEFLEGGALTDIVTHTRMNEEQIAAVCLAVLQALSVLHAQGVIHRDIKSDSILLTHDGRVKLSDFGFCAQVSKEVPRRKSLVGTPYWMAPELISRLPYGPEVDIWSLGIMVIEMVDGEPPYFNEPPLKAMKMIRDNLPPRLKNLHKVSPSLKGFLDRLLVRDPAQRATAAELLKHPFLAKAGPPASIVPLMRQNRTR

SMILES | pKi (PAK4) | inhibition in vivo at 0.01 % [1] [%]
CC(C)(CO)C(NC(=O)N1Cc2c(NC(=O)C3([Si](C)(C)C)CCC3)n[nH]c2C1(C)C)c1ccccc1 (single isomer, unassigned; (-)) [IV-673, (−)-N-(3-Hydroxy-2,2-dimethyl-1-phenylpropyl)-6,6-dimethyl-3-[1-(trimethylsilyl)cyclobutanecarboxamido]-4,6-dihydropyrrolo[3,4-c]pyrazole-5(1H)-carboxamide] | ≤ 6.30 | ≥ 50
CC1(C)c2[nH]nc(NC(=O)C3([Si](C)(C)C)CCC3)c2CN1C(=O)O[C@H](CO)c1ccccc1 [IV-2, (S)-2-Hydroxy-1-phenylethyl 6,6-dimethyl-3-[1-(trimethylsilyl)cyclobutanecarboxamido]-4,6-dihydropyrrolo[3,4-c]pyrazole-5(1H)-carboxylate] | ≤ 6.30 | –
CC[Si](C)(C)C1(C(=O)Nc2n[nH]c3c2CN(C(=O)N[C@H](CO)c2ccccc2)C3(C)C)CCC1 [IV-117, (S)-3-[1-(Ethyldimethylsilyl)cyclobutanecarboxamido]-N-(2-hydroxy-1-phenylethyl)-6,6-dimethyl-4,6-dihydropyrrolo[3,4-c]pyrazole-5(1H)-carboxamide] | ≤ 6.30 | –
CN(C(=O)N1Cc2c(NC(=O)C3([Si](C)(C)C)CCC3)n[nH]c2C1(C)C)[C@H](CO)c1ccccc1 [IV-119, (S)—N-(2-Hydroxy-1-phenylethyl)-N,6,6-trimethyl-3-[1-(trimethylsilyl)cyclobutanecarboxamido]-4,6-dihydropyrrolo[3,4-c]pyrazole-5(1H)-carboxamide] | ≤ 6.30 | –
CC1(C)c2[nH]nc(NC(=O)C3([Si](C)(C)C)CCC3)c2CN1C(=O)N[C@H](CCCCO)c1ccccc1 [IV-291, (R)—N-(5-Hydroxy-1-phenylpentyl)-6,6-dimethyl-3-[1-(trimethylsilyl)cyclobutanecarboxamido]-4,6-dihydropyrrolo[3,4-c]pyrazole-5(1H)-carboxamide] | ≤ 6.30 | –
CC1(C)c2[nH]nc(NC(=O)C3([Si](C)(C)C)CCC3)c2CN1C(=O)NCCO [IV-438, N-(2-Hydroxyethyl)-6,6-dimethyl-3-[1-(trimethylsilyl)cyclobutanecarboxamido]-4,6-dihydropyrrolo[3,4-c]pyrazole-5(1H)-carboxamide] | ≤ 6.30 | –
C[C@@H](CO)NC(=O)N1Cc2c(NC(=O)C3([Si](C)(C)C)CCC3)n[nH]c2C1(C)C [IV-455, (S)—N-(1-Hydroxypropan-2-yl)-6,6-dimethyl-3-[1-(trimethylsilyl)cyclobutanecarboxamido]-4,6-dihydropyrrolo[3,4-c]pyrazole-5(1H)-carboxamide] | ≤ 6.30 | –
CC(C)[C@@H](CO)NC(=O)N1Cc2c(NC(=O)C3([Si](C)(C)C)CCC3)n[nH]c2C1(C)C [IV-475, (S)—N-(1-Hydroxy-3-methylbutan-2-yl)-6,6-dimethyl-3-[1-(trimethylsilyl)cyclobutanecarboxamido]-4,6-dihydropyrrolo[3,4-c]pyrazole-5(1H)-carboxamide] | ≤ 6.30 | –
CC1(C)c2[nH]nc(NC(=O)C3([Si](C)(C)C)CCC3)c2CN1C(=O)N[C@H](CO)C1CCCCC1 [IV-495, (S)—N-(1-Cyclohexyl-2-hydroxyethyl)-6,6-dimethyl-3-[1-(trimethylsilyl)cyclobutanecarboxamido]-4,6-dihydropyrrolo[3,4-c]pyrazole-5(1H)-carboxamide] | ≤ 6.30 | –
CC1(C)c2[nH]nc(NC(=O)C3([Si](C)(C)C)CCC3)c2CN1C(=O)C(CO)c1ccccc1 (stereo not drawn) [IV-632, N-[5-(3-Hydroxy-2-phenylpropanoyl)-6,6-dimethyl-1,4,5,6-tetrahydropyrrolo[3,4-c]pyrazol-3-yl]-1-(trimethylsilyl)cyclobutanecarboxamide] | ≤ 6.30 | –
CC1(C)c2[nH]nc(NC(=O)C3([Si](C)(C)C)CCC3)c2CN1C(=O)NC(c1ccccc1)C1(CO)CCC1 (stereo not drawn) [IV-718, N-{[1-(Hydroxymethyl)cyclobutyl](phenyl)methyl}-6,6-dimethyl-3-[1-(trimethylsilyl)cyclobutanecarboxamido]-4,6-dihydropyrrolo[3,4-c]pyrazole-5(1H)-carboxamide] | ≤ 6.30 | ≥ 50
CC1(C)c2[nH]nc(NC(=O)C3([Si](C)(C)C)CCC3)c2CN1C(=O)N[C@H](CC1(O)CC1)c1ccccc1 [IV-743, (R)—N-[2-(1-Hydroxycyclopropyl)-1-phenylethyl]-6,6-dimethyl-3-[1-(trimethylsilyl)cyclobutanecarboxamido]-4,6-dihydropyrrolo[3,4-c]pyrazole-5(1H)-carboxamide] | ≤ 6.30 | ≥ 50
CC(C)(O)C[C@@H](NC(=O)N1Cc2c(NC(=O)C3([Si](C)(C)C)CCC3)n[nH]c2C1(C)C)c1cccc(F)c1 [IV-911, (R)—N-[1-(3-Fluorophenyl)-3-hydroxy-3-methylbutyl]-6,6-dimethyl-3-[1-(trimethylsilyl)cyclobutanecarboxamido]-4,6-dihydropyrrolo[3,4-c]pyrazole-5(1H)-carboxamide] | ≤ 6.30 | ≥ 50
CC(C)(CO)C(NC(=O)N1Cc2c(NC(=O)C3([Si](C)(C)C)CCC3)n[nH]c2C1(C)C)c1cccc(F)c1 (stereo not drawn) [IV-918, N-[1-(3-Fluorophenyl)-3-hydroxy-2,2-dimethylpropyl]-6,6-dimethyl-3-[1-(trimethylsilyl)cyclobutanecarboxamido]-4,6-dihydropyrrolo[3,4-c]pyrazole-5(1H)-carboxamide] | ≤ 6.30 | ≥ 50
CC(C)(O)C[C@@H](NC(=O)N1Cc2c(NC(=O)C3([Si](C)(C)C)CCC3)n[nH]c2C1(C)C)c1ccc(F)cc1 [IV-939, (R)—N-[1-(4-Fluorophenyl)-3-hydroxy-3-methylbutyl]-6,6-dimethyl-3-[1-(trimethylsilyl)cyclobutanecarboxamido]-4,6-dihydropyrrolo[3,4-c]pyrazole-5(1H)-carboxamide] | – | ≥ 50
CC(C)(CO)C(NC(=O)N1Cc2c(NC(=O)C3([Si](C)(C)C)CCC3)n[nH]c2C1(C)C)c1ccc(F)cc1 (stereo not drawn) [IV-946, N-[1-(4-Fluorophenyl)-3-hydroxy-2,2-dimethylpropyl]-6,6-dimethyl-3-[1-(trimethylsilyl)cyclobutanecarboxamido]-4,6-dihydropyrrolo[3,4-c]pyrazole-5(1H)-carboxamide] | ≤ 6.30 | ≥ 50
CC1(C)c2[nH]nc(NC(=O)C3([Si](C)(C)C)CCC3)c2CN1C(=O)[C@H](OC(F)(F)F)c1ccccc1 [IV-1184, (R)—N-{6,6-Dimethyl-5-[2-phenyl-2-(trifluoromethoxy)acetyl]-1,4,5,6-tetrahydropyrrolo[3,4-c]pyrazol-3-yl}-1-(trimethylsilyl)cyclobutanecarboxamide] | ≤ 6.30 | ≥ 50
CCCO[C@@H](C(=O)N1Cc2c(NC(=O)C3([Si](C)(C)C)CCC3)n[nH]c2C1(C)C)c1ccccc1 [IV-1196, (R)—N-[6,6-Dimethyl-5-(2-phenyl-2-propoxyacetyl)-1,4,5,6-tetrahydropyrrolo[3,4-c]pyrazol-3-yl]-1-(trimethylsilyl)cyclobutanecarboxamide] | – | ≥ 50
CC(C)O[C@@H](C(=O)N1Cc2c(NC(=O)C3([Si](C)(C)C)CCC3)n[nH]c2C1(C)C)c1ccccc1 [IV-1204, (R)—N-[5-(2-Isopropoxy-2-phenylacetyl)-6,6-dimethyl-1,4,5,6-tetrahydropyrrolo[3,4-c]pyrazol-3-yl]-1-(trimethylsilyl)cyclobutanecarboxamide] | ≤ 6.30 | ≥ 50
